In paper PMC12195707, “Evaluation of Antitumoral Activity in a 3D Cell Model of a Src Inhibitor Prodrug for Glioblastoma Treatment” (Pharmaceutics, 2025):
pIC50, pKi: −log10 of the molar value.

Key:
[1] = target: Src; set-up: method as in PMID 28650650; conditions: cited from earlier work
[2] = tested on: U251 3D-bioprinted structures; assay: Viability assay in 3D-bioprinted U251 cell model (PrestoBlue); format: cell-based; conditions: Homo sapiens, U-251, 72 h, bioprinted U251 3D model
Experimental: (§1) A solution of 2% alginate and 8% gelatin (bio-ink) made up the hydrogel utilized for bioprinting. After 15 min of UV light exposure, the powders were dissolved in sterile DPBS in a magnetic stirrer set at 50 °C with laminar flow. After being made, bioink was put in sterile syringes and kept at 4 °C until it was needed. Bioink had been equilibrated at 37 °C prior to the bioprinting process. After that, 2.7 mL of bioink was added to 20 × 10^6 cells that had been resuspended in 300 µL of growth media. Lastly, a disposable cartridge containing a cell/hydrogel suspension was equilibrated in a temperature-controlled printhead for 30 min at 29 °C. The BIO-X bioprinter (Cellink, Gothenburg, Sweden) was used to print in a 12-well plate at a speed of 5 mm/s and a dispensing pressure of 50 kPa, while the temperature was adjusted to 18 °C. Before adding culture media, three-dimensional constructs were crosslinked using CaCl2 for ten minutes and BaCl2 for three minutes. After 8 days, 3D structures, after evaluating cell viability, were treated for 72 h with SI306 and SI306-PD2 at selected concentrations and in different conditions: in complete DMEM high-glucose growth medium and DMEM-high glucose growth medium without FBS (w/o). Fiji ImageJ software (version 2.16.0/1.54p, https://imagej.net/software/fiji/downloads, accessed on 20 May 2025) was used to perform measurements of 3D models’ diameters on images acquired using phase contrast microscopy. A hemocytometer was used to set a scale for normalized measures and to convert real optic distance in pixels. At least five different optical fields were acquired, and the diameter was calculated for at least 100 different cell aggregates in each experimental point.
For the treatment of 2D cultures, U87 and U251 cell lines were initially seeded at a density of 2.5 × 10^4 cells/mL in a 24 multiwell with a complete DMEM high-glucose growth medium. […] Cell viability in 2D and 3D models was assessed using the cell-permeable resazurin-based solution PrestoBlue (Thermo Fisher, Waltham, MA, USA). After incubating the cells in a 1:10 ratio with the colorimetric reagent for two hours in the dark, the spectrophotometer readings at 570 and 600 nm were utilized as a relative indicator for cell viability.
Data were imported into Excel or GraphPad Prism software (version 6.01) and elaborated as the mean ± standard deviation (SD) of at least three independent experiments. […] The p value of the log-dose vs. response was calculated with a two-tailed Mann–Whitney test for unpaired data. The statistical significance between two series of measures, including stability and PAMPA (both GI and BBB) experiments, was calculated with the parametric Student t test, considering a significant p value lower than 0.05.

[3] = tested on: U87 glioblastoma cell line; assay: 2D cell viability assay (PrestoBlue), U87; format: cell-based; conditions: Homo sapiens, 72 h, U87 2D culture
Experimental: (§2) The human glioblastoma cell line U87 MG (U87) was originally isolated from a patient with a malignant glioma (ECACC). The human glioblastoma cell line U251 MG (U251) was derived from a patient with a malignant glioblastoma (ECACC). DMEM high-glucose growth medium (Euroclone, Milan, Italy), supplemented with 10% FBS (Euroclone), 200 mM L-glutamine (Euroclone), 100 IU/mL penicillin, and 100 µg/mL streptomycin (Euroclone) comprised the culture medium used for cell propagation at a controlled temperature and atmosphere, at 37 °C, […], and 5% CO2. Cell lines underwent regular testing for mycoplasma using the PCR method and identity verification was performed using DNA profiling.
(§3) For the treatment of 2D cultures, U87 and U251 cell lines were initially seeded at a density of 2.5 × 10^4 cells/mL in a 24 multiwell with a complete DMEM high-glucose growth medium. The viability test was started 24 h after cell plating and performed for 72 h. According to the experimental plan, the tests were performed in the presence of a complete DMEM high-glucose growth medium or, to avoid the serum-dependent degradation of prodrug, in an FBS-free DMEM high-glucose growth medium that was supplemented with 200 mM L-glutamine, 100 IU/mL penicillin, and 100 µg/mL streptomycin. Cell viability in 2D and 3D models was assessed using the cell-permeable resazurin-based solution PrestoBlue (Thermo Fisher, Waltham, MA, USA). After incubating the cells in a 1:10 ratio with the colorimetric reagent for two hours in the dark, the spectrophotometer readings at 570 and 600 nm were utilized as a relative indicator for cell viability.
(§4) Data were imported into Excel or GraphPad Prism software (version 6.01) and elaborated as the mean ± standard deviation (SD) of at least three independent experiments. The calculation of IC50 values with 95% confidence intervals was performed in GraphPad Prism software using a parameter nonlinear fit of the log-dose vs. response elaboration of data. The p value of the log-dose vs. response was calculated with a two-tailed Mann–Whitney test for unpaired data. The statistical significance between two series of measures, including stability and PAMPA (both GI and BBB) experiments, was calculated with the parametric Student t test, considering a significant p value lower than 0.05.

[4] = tested on: U251 spheroids; assay: Diameter of U251 spheroids in bioprinted scaffold; format: cell-based, human; conditions: 10 µM, 72 h, FBS-free DMEM
Experimental: as §1

[5] = tested on: U251 glioblastoma cell line; assay: 2D cell viability assay (PrestoBlue), U251; format: cell-based; conditions: Homo sapiens, U-251, 72 h, U251 2D culture
Experimental: as §2, §3, §4

[6] = tested on: U87MG xenograft; set-up: method as in PMID 28650650; conditions: nude mice, in combination with radiotherapy; cited from earlier work
[7] = tested on: U87 GBM cells; set-up: method as in PMID 12564978; conditions: cited from earlier work
[8] = tested on: CAS-1 GBM cells; set-up: method as in PMID 12564978; conditions: CAS-1 cells; cited from earlier work

Compound | pKi [1] | pIC50 ([2]; 10% FBS-DMEM) | pIC50 ([2]; FBS-free DMEM (w/o)) | pIC50 ([3]; 10% FBS-DMEM) | pIC50 ([3]; FBS-free DMEM (w/o)) | Mean diameter of U251 spheroids vs. control [4] | pIC50 ([5]; 10% FBS-DMEM) | pIC50 ([5]; FBS-free DMEM (w/o)) | U87MG xenograft growth [6] | Spheroid diameter vs. SI306-treated cells [4] | Activity in GBM cells [7] | Activity in GBM cells [8]
ClC(Cn1ncc2c(Nc3cccc(Br)c3)nc(SCCN3CCOCC3)nc21)c1ccccc1 (stereo not shown) [SI306, N-(3-bromophenyl)-1-(2-chloro-2-phenylethyl)-6-((2-morpholinoethyl)thio)-1H-pyrazolo[3,4-d]pyrimidin-4-amine] | 6.89 | 4.84 | 4.93 | 5.51 | 6.57 | significant difference in the mean diameter of the treated U251 spheroids with respect to the control | 5.58 | 6.64 | strongly arrested U87MG xenograft growth | – | – | –
O=C(OCCOCCO)N(c1cccc(Br)c1)c1nc(SCCN2CCOCC2)nc2c1cnn2CC(Cl)c1ccccc1 (stereo not shown) [SI306-PD2, 2-(2-Hydroxyethoxy)ethyl (3-Bromophenyl)(1-(2-chloro-2-phenylethyl)-6-((2-morpholinoethyl)thio)-1H-pyrazolo[3,4-d]pyrimidin-4-yl)carbamate] | – | 5.00 | 5.29 | 5.79 | 6.54 | significant difference in the mean diameter of the treated U251 spheroids with respect to the control | 5.89 | 7.05 | – | significant reduction in spheroid diameter with respect to SI306-treated cells | active | active
